# Non-standard residues stand in square brackets, D forms with d. Residues, ends and D or L forms follow the SMILES beside them.
# Tested on: Herpes Simplex Virus Type-1
# Assay: Herpes Simplex Virus Type-1 plaque inhibition assay in Vero cells
# Type: cell-based, Herpes simplex type 1 virus (HSV-1)
# Conditions: Vero cells infected with 50 to 60 pfu HSV-1; peptide added after 2 hr virus incubation; concentration that inhibited growth of 50% of the input HSV-1
# Method: Vero cells were seeded into 24-we! l tissue culture plates 24 to 48 hr prior to performing the plaque assay. Herpes simplex type 1 virus (HSV-1) was diluted to 50 to 60 plaque forming units (pfu)/0.1 ml Medium 199 and 0.1 ml was added to the cells. Control cultures received 0.1 ml Medium 199 without HSV-1. Plates were incubated for 2 hr at 37° C. in 5% carbon dioxide.
# Following incubation of the cells with or without HSV-1, the medium was removed by aspiration. The peptides to be tested for antiviral activity were diluted in Dulbecco's modified Eagle's medium supplemented with 0.2% human gamma globulin, 5% fetal bovine serum, 10 units/ml penicillin and 5μg/ml streptomycin and 1 ml of the peptide solution was added to each of duplicate wells. Medium only was added to wells labelled for input virus or cell controls.
# Cells were observed by microscopy at 24 and 48 hr to identify toxicity due to the peptides. Following the incubation period, medium was removed by aspiration and the cultures were fixed using methanol and stained with 0.037% Geimsa for 45 min. The stain was removed and the plates were rinsed and allowed to air dry. The concentration of peptide that inhibited growth of 50% of the input HSV-1 (IC50) was determined for each peptide by counting the number of viral plaques present in the peptide-treated wells as compared with the input virus control wells.
# Using the plaque inhibition assay, a peptide was considered to have no antiviral effect in this assay if greater than 100 μg/ml of the peptide was required to inhibit growth of 50% of the input HSV-1.
row,Structure (SMILES),Herpes Simplex Virus Type-1 Plaque Inhibition IC50 [µg/mL]
1,CC(=O)N[C@H](CCCNC(=N)N)C(=O)N[C@H](CCCNC(=N)N)C(=O)N[C@H](Cc1c[nH]c2ccccc12)C(=O)N[C@H](Cc1c[nH]c2ccccc12)C(=O)N[C@H](CS)C(=O)N[C@H](CCCNC(=N)N)C(=O)N[C@H](C)C(N)=O [Ac-Arg-Arg-Trp-Trp-Cys-Arg-Ala-NH2],35
2,CC(=O)N[C@H](CCCNC(=N)N)C(=O)N[C@H](CCCNC(=N)N)C(=O)N[C@H](Cc1c[nH]c2ccccc12)C(=O)N[C@H](Cc1c[nH]c2ccccc12)C(=O)N[C@H](CS)C(=O)N[C@H](CCCNC(=N)N)C(=O)N[C@H](CCCNC(=N)N)C(N)=O [Ac-Arg-Arg-Trp-Trp-Cys-Arg-Arg-NH2],62
3,CC(=O)N[C@H](CCCNC(=N)N)C(=O)N[C@H](CCCNC(=N)N)C(=O)N[C@H](Cc1c[nH]c2ccccc12)C(=O)N[C@H](Cc1c[nH]c2ccccc12)C(=O)N[C@H](CS)C(=O)N[C@H](CCCNC(=N)N)C(=O)N[C@H](CC(N)=O)C(N)=O [Ac-Arg-Arg-Trp-Trp-Cys-Arg-Asn-NH2],85
4,CC(=O)N[C@H](CCCNC(=N)N)C(=O)N[C@H](CCCNC(=N)N)C(=O)N[C@H](Cc1c[nH]c2ccccc12)C(=O)N[C@H](Cc1c[nH]c2ccccc12)C(=O)N[C@H](CS)C(=O)N[C@H](CCCNC(=N)N)C(=O)N[C@H](CC(=O)O)C(N)=O [Ac-Arg-Arg-Trp-Trp-Cys-Arg-Asp-NH2],> 100
5,CC(=O)N[C@H](CCCNC(=N)N)C(=O)N[C@H](CCCNC(=N)N)C(=O)N[C@H](Cc1c[nH]c2ccccc12)C(=O)N[C@H](Cc1c[nH]c2ccccc12)C(=O)N[C@H](CS)C(=O)N[C@H](CCCNC(=N)N)C(=O)N[C@H](CS)C(N)=O [Ac-Arg-Arg-Trp-Trp-Cys-Arg-Cys-NH2] (Ac-[dR][dR][dW][dW][dC][dR][dC]-NH2),50
6,CC(=O)N[C@H](CCCNC(=N)N)C(=O)N[C@H](CCCNC(=N)N)C(=O)N[C@H](Cc1c[nH]c2ccccc12)C(=O)N[C@H](Cc1c[nH]c2ccccc12)C(=O)N[C@H](CS)C(=O)N[C@H](CCCNC(=N)N)C(=O)N[C@H](CCC(N)=O)C(N)=O [Ac-Arg-Arg-Trp-Trp-Cys-Arg-Gln-NH2],37
7,CC(=O)N[C@H](CCCNC(=N)N)C(=O)N[C@H](CCCNC(=N)N)C(=O)N[C@H](Cc1c[nH]c2ccccc12)C(=O)N[C@H](Cc1c[nH]c2ccccc12)C(=O)N[C@H](CS)C(=O)N[C@H](CCCNC(=N)N)C(=O)N[C@H](CCC(=O)O)C(N)=O [Ac-Arg-Arg-Trp-Trp-Cys-Arg-Glu-NH2],> 100
8,CC(=O)N[C@H](CCCNC(=N)N)C(=O)N[C@H](CCCNC(=N)N)C(=O)N[C@H](Cc1c[nH]c2ccccc12)C(=O)N[C@H](Cc1c[nH]c2ccccc12)C(=O)N[C@H](CS)C(=O)N[C@H](CCCNC(=N)N)C(=O)NCC(N)=O [Ac-Arg-Arg-Trp-Trp-Cys-Arg-Gly-NH2],> 100
9,CC(=O)N[C@H](CCCNC(=N)N)C(=O)N[C@H](CCCNC(=N)N)C(=O)N[C@H](Cc1c[nH]c2ccccc12)C(=O)N[C@H](Cc1c[nH]c2ccccc12)C(=O)N[C@H](CS)C(=O)N[C@H](CCCNC(=N)N)C(=O)N[C@H](Cc1c[nH]cn1)C(N)=O [Ac-Arg-Arg-Trp-Trp-Cys-Arg-His-NH2],> 100
10,CC[C@@H](C)[C@@H](NC(=O)[C@@H](CCCNC(=N)N)NC(=O)[C@@H](CS)NC(=O)[C@@H](Cc1c[nH]c2ccccc12)NC(=O)[C@@H](Cc1c[nH]c2ccccc12)NC(=O)[C@@H](CCCNC(=N)N)NC(=O)[C@@H](CCCNC(=N)N)NC(C)=O)C(N)=O [Ac-Arg-Arg-Trp-Trp-Cys-Arg-Ile-NH2],> 100
11,CC(=O)N[C@H](CCCNC(=N)N)C(=O)N[C@H](CCCNC(=N)N)C(=O)N[C@H](Cc1c[nH]c2ccccc12)C(=O)N[C@H](Cc1c[nH]c2ccccc12)C(=O)N[C@H](CS)C(=O)N[C@H](CCCNC(=N)N)C(=O)N[C@H](CC(C)C)C(N)=O [Ac-Arg-Arg-Trp-Trp-Cys-Arg-Leu-NH2],61
12,CC(=O)N[C@H](CCCNC(=N)N)C(=O)N[C@H](CCCNC(=N)N)C(=O)N[C@H](Cc1c[nH]c2ccccc12)C(=O)N[C@H](Cc1c[nH]c2ccccc12)C(=O)N[C@H](CS)C(=O)N[C@H](CCCNC(=N)N)C(=O)N[C@H](CCCCN)C(N)=O [Ac-Arg-Arg-Trp-Trp-Cys-Arg-Lys-NH2],50
13,CSCC[C@@H](NC(=O)[C@@H](CCCNC(=N)N)NC(=O)[C@@H](CS)NC(=O)[C@@H](Cc1c[nH]c2ccccc12)NC(=O)[C@@H](Cc1c[nH]c2ccccc12)NC(=O)[C@@H](CCCNC(=N)N)NC(=O)[C@@H](CCCNC(=N)N)NC(C)=O)C(N)=O [Ac-Arg-Arg-Trp-Trp-Cys-Arg-Met-NH2],> 50
14,CC(=O)N[C@H](CCCNC(=N)N)C(=O)N[C@H](CCCNC(=N)N)C(=O)N[C@H](Cc1c[nH]c2ccccc12)C(=O)N[C@H](Cc1c[nH]c2ccccc12)C(=O)N[C@H](CS)C(=O)N[C@H](CCCNC(=N)N)C(=O)N[C@H](Cc1ccccc1)C(N)=O [Ac-Arg-Arg-Trp-Trp-Cys-Arg-Phe-NH2],59
15,CC(=O)N[C@H](CCCNC(=N)N)C(=O)N[C@H](CCCNC(=N)N)C(=O)N[C@H](Cc1c[nH]c2ccccc12)C(=O)N[C@H](Cc1c[nH]c2ccccc12)C(=O)N[C@H](CS)C(=O)N[C@H](CCCNC(=N)N)C(=O)N1CCC[C@@H]1C(N)=O [Ac-Arg-Arg-Trp-Trp-Cys-Arg-Pro-NH2],> 100
16,CC(=O)N[C@H](CCCNC(=N)N)C(=O)N[C@H](CCCNC(=N)N)C(=O)N[C@H](Cc1c[nH]c2ccccc12)C(=O)N[C@H](Cc1c[nH]c2ccccc12)C(=O)N[C@H](CS)C(=O)N[C@H](CCCNC(=N)N)C(=O)N[C@H](CO)C(N)=O [Ac-Arg-Arg-Trp-Trp-Cys-Arg-Ser-NH2],> 100
17,CC(=O)N[C@H](CCCNC(=N)N)C(=O)N[C@H](CCCNC(=N)N)C(=O)N[C@H](Cc1c[nH]c2ccccc12)C(=O)N[C@H](Cc1c[nH]c2ccccc12)C(=O)N[C@H](CS)C(=O)N[C@H](CCCNC(=N)N)C(=O)N[C@@H](C(N)=O)[C@H](C)O [Ac-Arg-Arg-Trp-Trp-Cys-Arg-Thr-NH2],> 100
18,CC(=O)N[C@H](CCCNC(=N)N)C(=O)N[C@H](CCCNC(=N)N)C(=O)N[C@H](Cc1c[nH]c2ccccc12)C(=O)N[C@H](Cc1c[nH]c2ccccc12)C(=O)N[C@H](CS)C(=O)N[C@H](CCCNC(=N)N)C(=O)N[C@H](Cc1c[nH]c2ccccc12)C(N)=O [Ac-Arg-Arg-Trp-Trp-Cys-Arg-Trp-NH2],37
19,CC(=O)N[C@H](CCCNC(=N)N)C(=O)N[C@H](CCCNC(=N)N)C(=O)N[C@H](Cc1c[nH]c2ccccc12)C(=O)N[C@H](Cc1c[nH]c2ccccc12)C(=O)N[C@H](CS)C(=O)N[C@H](CCCNC(=N)N)C(=O)N[C@H](Cc1ccc(O)cc1)C(N)=O [Ac-Arg-Arg-Trp-Trp-Cys-Arg-Tyr-NH2],> 100
20,CC(=O)N[C@H](CCCNC(=N)N)C(=O)N[C@H](CCCNC(=N)N)C(=O)N[C@H](Cc1c[nH]c2ccccc12)C(=O)N[C@H](Cc1c[nH]c2ccccc12)C(=O)N[C@H](CS)C(=O)N[C@H](CCCNC(=N)N)C(=O)N[C@@H](C(N)=O)C(C)C [Ac-Arg-Arg-Trp-Trp-Cys-Arg-Val-NH2],58
